From patent publication US20250057890A1, “FUNCTIONAL FOOD CONTAINING BONITO-DERIVED EXTRACT FOR PREVENTING OR AMELIORATING NEUROPSYCHIATRIC DISORDERS” (MARUHACHI MURAMATSU, INC., priority 2022, published 2025)

Key:
[1] = test system: MG6 cells from mouse brain microglia; assay: Anti-inflammatory action: TNF-α production in LPS-activated MG6 cells (ELISA); assay type: cell-based; conditions: for anti-inflammatory activity: MG6 cells, LPS, fractions or single components; for anti-inflammatory action compared to katsuobushi extract: known components of katsuobushi, each in isolation
Method: MG6 cells from mouse brain microglia were purchased from the RIKEN BioResource Research Center (BRC), and the anti-inflammatory action of various extracts, including from katsuobushi, were assayed (see FIG. 1). First, a 96-well plate was seeded with the MG6 cells (5×10^3 cells/well·90 μL), and a culture was started in a CO2 incubator (37° C., CO2 level 5%). Next the various extracts were added to the wells after 0.5 hours, followed by the addition of lipopolysaccharide (LPS) 1 hour after that to activate the MG6 cells and induce an inflammatory state. After 6 hours, 10 μL of culture supernatant was collected from each well, after which 10 μL of a viable cell counting reagent (WST-8) was added to each well, and absorbance at 450 nm (reference wavelength 630 nm) was measured with a plate reader after 1 hour and 2 hours.
The previously collected culture supernatant was diluted 25-fold with a buffer, and the levels of TNF-α, a type of inflammatory cytokine, produced in the culture supernatant was measured via ELISA (using ELISA MAX™ Deluxe Set Mouth TNF-α, a kit manufactured by BioLegend). In the LPS addition test section, anti-inflammatory action was determined to be higher when the TNF-α production levels were more reduced through the prior addition of the various extracts, and lower the less said levels were reduced.

[2] = test system: rat brain capillary endothelial cells (RBECs, primary cells); assay: Protein expression of tight-junction-associated molecules (claudin-5 and occludin) in RBECs, western blot; assay type: cell-based
Method: First, a 48-well plate was seeded with the RBECs (2×10^5 cells/well·440 μL), and a culture was started in a CO2 incubator (37° C., CO2 level 5%). Next, after 72 hours, the medium in each well was replaced with an evaluation medium prepared by adding the various extracts, and, 24 hours and 72 hours after that, RNA and protein were recovered from the cultured cells a NucleoSpin RNA/Protein kit (Takara Bio) according to the protocol of the kit. The extracted protein was evaluated via western blot, and DNA obtained by reverse transcription of the extracted RNA was evaluated via real-time PCR.
(§1) First, a 48-well plate was seeded with the RBECs (2×10^5 cells/well·440 μL), and a culture was started in a CO2 incubator (37° C., CO2 level 5%). […] The extracted protein was evaluated via western blot, and DNA obtained by reverse transcription of the extracted RNA was evaluated via real-time PCR (real-time PCR data not shown here).
as §1

[3] = test system: microglia in the hippocampus; conditions: Liang et al., International Journal of Neuroscience, 2022; cited from earlier work

Row | SMILES | anti-inflammatory activity [1] | anti-inflammatory action compared to katsuobushi extract [1] | other results
1 | Nc1ncnc2c1ncn2[C@@H]1O[C@H](COP(=O)(O)O)[C@@H](O)[C@H]1O [AMP, adenosine 5′-monophosphate] | anti-inflammatory activity was observed |  | 
2 | Cn1cncc1C[C@H](NC(=O)CCN)C(=O)O [anserine] |  | none of these substances in isolation showed anti-inflammatory action comparable to katsuobushi extract | 
3 | C[N+](C)(C)CC(=O)O [betaine] |  | none of these substances in isolation showed anti-inflammatory action comparable to katsuobushi extract | 
4 | NCCC(=O)N[C@@H](Cc1cnc[nH]1)C(=O)O [carnosine] |  | none of these substances in isolation showed anti-inflammatory action comparable to katsuobushi extract | 
5 | CN(CC(=O)O)C(=N)N [creatine] |  | none of these substances in isolation showed anti-inflammatory action comparable to katsuobushi extract | 
6 | O=C(O)CO [glycolic acid] | showed anti-inflammatory activity |  | 
7 | N[C@@H](Cc1c[nH]cn1)C(=O)O [histidine] |  | none of these substances in isolation showed anti-inflammatory action comparable to katsuobushi extract | claudin-5 protein expression ([2]; added concentration 0.836 mg/ml, after 24 hours, compared to serum-free medium): elevated; expression of tight-junction-associated molecules (claudin-5 and occludin) at the genetic level and the protein level ([2]; rat cerebrovascular endothelial cells): elevated expression
8 | O=c1[nH]cnc2nc[nH]c12 [hypoxanthine] | anti-inflammatory activity was observed |  | 
9 | CC(O)C(=O)O (centres unmarked) [lactic acid] | showed anti-inflammatory activity |  | anti-inflammatory activity (literature) [3]: already been reported to have anti-inflammatory activity
10 | O=C[C@H](O)[C@H](O)[C@H](O)COP(=O)(O)O [ribose 5-phosphate] | anti-inflammatory activity was observed |  | 
11 | O=C(O)CCC(=O)O [succinic acid] | anti-inflammatory activity was observed |  | 
